# From patent US11541107B2, “Peptides and T cells for use in immunotherapeutic treatment of various cancers” (Immatics Biotechnologies GmbH, priority 2015, dated 2023)
# Target: HLA-A*02 (Homo sapiens, UniProt P04439, D140Y/D185E/D98H/E176V/E277Q/G131W/G231S/I119V/I121R/I166T/I218V/L300P/N151K/N90K/P208A/P217A/Q86G/Q94H/R138H/R169H)
# Assay: MHC binding assay, UV-ligand exchange with beta2m ELISA, HLA-A*02
# Settings: binding to HLA-A*02 ranged by peptide exchange yield (UV-ligand exchange, beta2m ELISA)
# Text: Candidate peptides for T cell based therapies according to the present invention were further tested for their MHC binding capacity (affinity). The individual peptide-MHC complexes were produced by UV-ligand exchange, where a UV-sensitive peptide is cleaved upon UV-irradiation, and exchanged with the peptide of interest as analyzed. Only peptide candidates that can effectively bind and stabilize the peptide-receptive MHC molecules prevent dissociation of the MHC complexes. To determine the yield of the exchange reaction, an ELISA was performed based on the detection of the light chain (ß2 m) of stabilized MHC complexes. The assay was performed as generally described in Rodenko et al. (Rodenko et al., 2006).
# 96 well MAXISorp plates (NUNC) were coated over night with 2 ug/ml streptavidin in PBS at room temperature, washed 4× and blocked for 1 h at 37° C. in 2% BSA containing blocking buffer. […] Peptide-MHC monomers of the UV-exchange reaction were diluted 100 fold in blocking buffer. Samples were incubated for 1 h at 37° C., washed four times, incubated with 2 ug/ml HRP conjugated anti-β2 m for 1h at 37° C., washed again and detected with TMB solution that is stopped with […]. Absorption was measured at 450 nm. Candidate peptides that show a high exchange yield (preferably higher than 50%, most preferred higher than 75%) are generally preferred for a generation and production of antibodies or fragments thereof, and/or T cell receptors or fragments thereof, as they show sufficient avidity to the MHC molecules and prevent dissociation of the MHC complexes.
row,Peptide exchange,Substance
1,++ (20%-49% = ++),1 (PLWGKVFYL; listed as Homo sapiens) [compound 1]
2,+++ (50%-75% = +++),3 (TLLGKQVTL; listed as Homo sapiens) [compound 3]
3,+++ (50%-75% = +++),4 (ELAEIVFKV; listed as Homo sapiens) [compound 4]
4,+++ (50%-75% = +++),5 (SLFGQEVYC; listed as Homo sapiens) [compound 5]
5,+++ (50%-75% = +++),6 (FLDPAQRDL; listed as Homo sapiens) [compound 6]
6,+++ (50%-75% = +++),8 (KLGPFLLNA; listed as Homo sapiens) [compound 8]
7,++ (20%-49% = ++),10 (KTLDVFNIIL; listed as Homo sapiens) [compound 10]
8,++ (20%-49% = ++),11 (GVLKVFLENV; listed as Homo sapiens) [compound 11]
9,++ (20%-49% = ++),12 (GLIYEETRGV; listed as Homo sapiens) [compound 12]
10,+++ (50%-75% = +++),13 (VLRDNIQGI; listed as Homo sapiens) [compound 13]
11,++ (20%-49% = ++),14 (LLDHLSFINKI; listed as Homo sapiens) [compound 14]
12,++ (20%-49% = ++),16 (HLYNNEEQV; listed as Homo sapiens) [compound 16]
13,+++ (50%-75% = +++),18 (YVLNEEDLQKV; listed as Homo sapiens) [compound 18]
14,+++ (50%-75% = +++),19 (TLLPTVLTL; listed as Homo sapiens) [compound 19]
15,+++ (50%-75% = +++),20 (ALDGHLYAI; listed as Homo sapiens) [compound 20]
16,++++ (>=75% = ++++),21 (SLYHRVLLY; listed as Homo sapiens) [compound 21]
17,++++ (>=75% = ++++),22 (MLSDLTLQL; listed as Homo sapiens) [compound 22]
18,+ (<20% = +),23 (AQTVVVIKA; listed as Homo sapiens) [compound 23]
19,+++ (50%-75% = +++),24 (FLWNGEDSAL; listed as Homo sapiens) [compound 24]
20,++ (20%-49% = ++),25 (IQADDFRTL; listed as Homo sapiens) [compound 25]
21,+++ (50%-75% = +++),26 (KVDGVVIQL; listed as Homo sapiens) [compound 26]
22,+++ (50%-75% = +++),27 (KVFGDLDQV; listed as Homo sapiens) [compound 27]
23,+++ (50%-75% = +++),28 (TLYSMDLMKV; listed as Homo sapiens) [compound 28]
24,+++ (50%-75% = +++),29 (TLCNKTFTA; listed as Homo sapiens) [compound 29]

# System: HLA-A*24
# Assay: MHC binding assay, UV-ligand exchange with beta2m ELISA, HLA-A*24
# Set-up: species or system human
# Settings: binding to HLA-A*24 ranged by peptide exchange yield (UV-ligand exchange, beta2m ELISA)
# Summary of the method: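 Peptide–MHC complexes made by UV-ligand exchange of a UV-cleavable peptide. Exchange yield measured by ELISA: monomers diluted 100-fold on streptavidin-coated plates, 1 h at 37°C, detected with HRP anti-β2m (2 ug/ml) and TMB, absorbance at 450 nm.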
row,Peptide exchange,Substance
1,++++ (>=75% = ++++),313 (KYTHFIQSF; listed as Homo sapiens) [compound 313]
2,+++ (50%-75% = +++),314 (RYFKGDYSI; listed as Homo sapiens) [compound 314]
3,+++ (50%-75% = +++),315 (FYIPHVPVSF; listed as Homo sapiens) [compound 315]
4,+++ (50%-75% = +++),316 (VYFEGSDFKF; listed as Homo sapiens) [compound 316]
5,+++ (50%-75% = +++),317 (VFDTSIAQLF; listed as Homo sapiens) [compound 317]
6,+++ (50%-75% = +++),318 (TYSNSAFQYF; listed as Homo sapiens) [compound 318]
7,++++ (>=75% = ++++),319 (KYSDVKNLI; listed as Homo sapiens) [compound 319]
8,+++ (50%-75% = +++),341 (SYLTQHQRI; listed as Homo sapiens) [compound 341]
9,+++ (50%-75% = +++),342 (NYAFLHRTL; listed as Homo sapiens) [compound 342]
10,+++ (50%-75% = +++),343 (NYLGGTSTI; listed as Homo sapiens) [compound 343]
11,+++ (50%-75% = +++),345 (EYNSDLHQFF; listed as Homo sapiens) [compound 345]
12,+++ (50%-75% = +++),347 (VYAEVNSL; listed as Homo sapiens) [compound 347]
13,+++ (50%-75% = +++),348 (IYLEHTESI; listed as Homo sapiens) [compound 348]
14,+++ (50%-75% = +++),349 (QYSIISNVF; listed as Homo sapiens) [compound 349]
15,+++ (50%-75% = +++),350 (KYGNFIDKL; listed as Homo sapiens) [compound 350]
16,+++ (50%-75% = +++),351 (IFHEVPLKF; listed as Homo sapiens) [compound 351]
17,+++ (50%-75% = +++),352 (QYGGDLTNTF; listed as Homo sapiens) [compound 352]
18,+++ (50%-75% = +++),355 (IYVTGGHLF; listed as Homo sapiens) [compound 355]
19,++++ (>=75% = ++++),357 (QFITSTNTF; listed as Homo sapiens) [compound 357]
20,+++ (50%-75% = +++),360 (VFSPDGHLF; listed as Homo sapiens) [compound 360]
21,+++ (50%-75% = +++),361 (TYADIGGLDNQI; listed as Homo sapiens) [compound 361]
22,++ (20%-49% = ++),362 (VYNYAEQTL; listed as Homo sapiens) [compound 362]
23,+++ (50%-75% = +++),364 (KYLNENQLSQL; listed as Homo sapiens) [compound 364]

row,Peptide exchange,Substance
1,+++ (50%-75% = +++),366 (QYLELAHSL; listed as Homo sapiens) [compound 366]
2,++ (20%-49% = ++),367 (LYQDHMQYI; listed as Homo sapiens) [compound 367]
3,+++ (50%-75% = +++),368 (KYQNVKHNL; listed as Homo sapiens) [compound 368]
4,+++ (50%-75% = +++),369 (VYTHEVVTL; listed as Homo sapiens) [compound 369]
5,+++ (50%-75% = +++),370 (RFIGIPNQF; listed as Homo sapiens) [compound 370]
6,++ (20%-49% = ++),371 (AYSHLRYVF; listed as Homo sapiens) [compound 371]
7,+++ (50%-75% = +++),372 (VYVIEPHSMEF; listed as Homo sapiens) [compound 372]
8,+++ (50%-75% = +++),373 (GYISNGELF; listed as Homo sapiens) [compound 373]
9,++ (20%-49% = ++),374 (VFLPRVTEL; listed as Homo sapiens) [compound 374]
10,+++ (50%-75% = +++),375 (KYTDYILKI; listed as Homo sapiens) [compound 375]
11,+++ (50%-75% = +++),376 (VYTPVASRQSL; listed as Homo sapiens) [compound 376]
12,+++ (50%-75% = +++),377 (QYTPHSHQF; listed as Homo sapiens) [compound 377]
13,+++ (50%-75% = +++),378 (VYIAELEKI; listed as Homo sapiens) [compound 378]
14,++++ (>=75% = ++++),379 (VFIAQGYTL; listed as Homo sapiens) [compound 379]
15,+++ (50%-75% = +++),381 (KYPASSSVF; listed as Homo sapiens) [compound 381]
16,+++ (50%-75% = +++),382 (AYLPPLQQVF; listed as Homo sapiens) [compound 382]
17,+++ (50%-75% = +++),383 (RYKPGEPITF; listed as Homo sapiens) [compound 383]
18,+++ (50%-75% = +++),384 (RYFDVGLHNF; listed as Homo sapiens) [compound 384]
19,+++ (50%-75% = +++),385 (QYIEELQKF; listed as Homo sapiens) [compound 385]
20,+++ (50%-75% = +++),386 (TFSDVEAHF; listed as Homo sapiens) [compound 386]
21,+++ (50%-75% = +++),387 (KYTEKLEEI; listed as Homo sapiens) [compound 387]
22,+++ (50%-75% = +++),388 (IYGEKTYAF; listed as Homo sapiens) [compound 388]
